# Measured values from patent publication US8222218B2, “Cyclopropanated carbohydrates” (Seton Hall University, priority 2008, dated 2012).
# pKi: −log10 of the molar value. Like-named read-outs stand apart in the source and are kept apart here.
# Key:
# MES-induced seizures = assay: Maximal Electroshock Seizure (MES) test, mice; assay type: in vivo; settings: Mus musculus, ip, mice, i.p.
# How it was run: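 Seizures were induced by a 60 Hz corneal current for 2 s (50 mA in CF1 mice, 150 mA in Sprague-Dawley rats). Mice received 30, 100 or 300 mg/kg i.p. in 0.5% methylcellulose and were tested at several intervals; rats received 30 mg/kg p.o. Protection means abolition of hind-limb tonic extension.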
# [1] = system: metrazole-induced clonic seizures; assay: Subcutaneous Metrazole Seizure Threshold Test (scMET), mice; assay type: in vivo; settings: Mus musculus, sc, mice
# How it was run: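 CF1 mice dosed with test compound at 30, 100 and 300 mg/kg; Sprague-Dawley rats at 50 mg/kg p.o. At compound TPE, metrazole at CD97 (85 mg/kg in mice) injected s.c. in the neck. Animals observed 30 min; endpoint is a 3-5 s clonic spasm episode.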
# [2] = Acute toxicity, minimal motor impairment (rotorod), mice; assay type: in vivo; settings: for TOX 30 0.5 h (animals toxic/tested) / TOX 30 4 h (animals toxic/tested) / TOX 100 0.5 h (animals toxic/tested) / TOX 100 4 h (animals toxic/tested) / TOX 300 0.5 h (animals toxic/tested) / TOX 300 4 h (animals toxic/tested): mice, rotorod; for TOX 30 0.5 h (animals toxic/tested) / TOX 30 4 h (animals toxic/tested): 30 mg/kg; for TOX 100 0.5 h (animals toxic/tested) / TOX 100 4 h (animals toxic/tested): 100 mg/kg; for TOX 300 0.5 h (animals toxic/tested) / TOX 300 4 h (animals toxic/tested): 300 mg/kg
# How it was run: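 Mice placed on a rod rotating at 6 rpm; a compound is scored toxic when the animal falls off three times within 1 min. In rats, minimal motor deficit is scored as ataxia, an abnormal uncoordinated gait.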
# [3] = target: T1, cloned, human D1 receptor (Homo sapiens, UniProt P21728); assay: Radioligand competition binding assay, [3H]SCH23390
# T1 construct: expressed in transfected cells
# Description: Receptor binding profiles were provided by the National Institute of Mental Health's Psychoactive Drug Screening Program, Contract # N01 MH32004 (NIMH PDSP) The NIMH PDSP is directed by Bryan L. Roth M. D., Ph.D. at the University of North Carolina at Chapel Hill and Project Officer Jamie Driscol at NIMH, Bethesda Md., USA. Protocols for receptor-based assays by the PDSP may be found on the website: http://pdsp.med.unc.edu/pdspw/binding.php and http://pdsp.med.unc.edu/pdspw/function.php (Apr. 30, 2008).
# Radioligand competition binding assays were performed as previously described (Rothman, R. B., Baumann, M. H., Savage, J. E., Rauser, L., McBride, Hufeisen, S. J., Roth B. L. Circulation (2000) 102:2836-2841) for Compounds 7 and 16. Briefly, test compounds were dissolved to 10 mM in 100% DMSO, then diluted to the desired concentrations (spanning seven orders of magnitude) in Dopamine Binding Buffer (50 mM NaCl, 50 mM HEPES, 5 mM MgCl2, 0.5 mM EDTA, pH 7.4). Diluted test and reference compounds were added to wells containing radioligand ([^3H]SCH23390, 0.3 nM final concentration) and buffer, then membrane fractions from cells stably expressing cloned, human D1 or D5 receptors were added and binding was allowed to equilibrate at room temperature for 1.5 hours. At equilibrium, reactions were filtered (using a FilterMate 96-well harvester, PerkinElmer) onto GF-A glass fiber filters (Wallac) and allowed to dry. Meltilex scintillant (Wallac) was melted onto the dry filters, and then allowed to cool. Filters were then sealed in plastic bags and counted on a Wallac TriLux microbeta counter.
# Raw data (dpm) representing total radioligand binding (i.e., specific+non-specific binding) were plotted as a function of the logarithm of the molar concentration of the competitor (i.e., test or reference compound). Non-linear regression of the normalized (i.e., percent radioligand binding compared to that observed in the absence of test or reference compound) raw data is performed in Prism 4.0 (GraphPad Software) using the built-in three parameter logistic model describing ligand competition binding to radioligand-labeled sites: y=bottom+[(top−bottom)/(1+10^x−logIC50)] where bottom equals the residual radioligand binding measured in the presence of 10 μM reference compound (i.e., non-specific binding) and top equals the total radioligand binding observed in the absence of competitor. The log IC50 (i.e., the log of the ligand concentration that reduces radioligand binding by 50%) is thus estimated from the data and used to obtain the Ki by applying the Cheng-Prusoff approximation: Ki=IC50/(1+[ligand]/KD) where [ligand] equals the assay radioligand concentration and KD equals the affinity constant of the radioligand for the target receptor.
# [4] = system: electrically-induced psychomotor seizure (6 Hz); assay: Minimal Clonic Seizure (6 Hz) test, mice; assay type: in vivo; settings: i.p., 100 mg/kg
# Method: (§1) Toxicity was measured using the minimal motor impairment test described below.
# (§2) The minimal clonic seizure (6 Hz) test, like the MES test, is used to assess a compound's ability to protect against electrically-induced seizures. The minimal clonic (6 Hz) seizure test uses a lower frequency (6 Hz) and a longer duration of stimulation (3 seconds) than the MES test. Test compounds are pre-administered to mice via i.p. injection. At varying times, individual mice (four per time point) are challenged with sufficient current via corneal electrodes to elicit a psychomotor seizure in 97% of animals (32 mA for 3 second). Untreated mice will display seizure characterized by a minimal clonic phase followed by stereotyped, automatistic behaviors described originally as being similar to the aura of human patients with partial seizures. Animals not displaying this behavior are considered to be protected.
# Male and female albino CF1 mice (18-25 g, Charles River, Portage, Mich.) and male albino Sprague-Dawley rats (275-300 g, kindling test; 100-150 g all other tests; Charles River, Raleigh, N.C.) were used as experimental animals.
# seizures = assay: In vivo anticonvulsant screening (MES, scMET, minimal clonic seizure), summary in words; set-up: species or system rat, mouse; settings: summary of Table 2
# Method: as §1
# The MES test is a model for generalized tonic-clonic seizures. The seizures are highly reproducible and electrophysiologically consistent with human seizures. The test provides information about a compound's ability to prevent the spread of seizure when all neuronal circuits of the brain are maximally active. 60 Hz of alternating current (50 mA in mice, 150 mA in rats) is applied for 2 seconds via corneal electrodes that have been treated with an electrolyte solution containing an anesthetic (0.5% tetracaine HCl). Mice are tested at a variety of intervals after an i.p. injection of […] solution of the test compound (commonly in a 0.5% solution of methylcellulose) at 30, 100, and 300 mg/kg doses. Rats are examined after a 30 mg/kg (per os, p.o.) dose that is applied in a volume of 0.04 mL/g. An animal is considered “protected” from MES-induced seizures upon removal of the hind limb extensor component of the seizure.
# The subcutaneous injection of metrazole, which is a convulsant, produces clonic seizures in laboratory animals. The scMET test is designed to identify compounds that raise the seizure threshold of an animal. Mice are pretreated with test compound at 30, 100, and 300 mg/kg doses in a similar manner to the MES test. Rats are treated with a 50 mg/kg dose (p.o.). At the previously determined TPE of the test compound, the dose of metrazole that will induce convulsions in 97% of animals (CD97: 85 mg/kg mice) is injected into the loose fold of the skin in the midline of the neck. The animals are placed in isolation cages to minimize stress and observed for the next 30 minutes for the presence or absence of seizures. An episode of clonic spasms (approximately 3-5 seconds) of the fore and/or hindlimbs, jaws or vibrissae is taken as the endpoint.
# as §2
# [5] = 0.5 h, read-out: MES 30 0.5 h (animals protected/tested)
# [6] = 4 h, read-out: MES 30 4 h (animals protected/tested)
# [7] = 0.5 h, read-out: MES 100 0.5 h (animals protected/tested)
# [8] = 4 h, read-out: MES 100 4 h (animals protected/tested)
# [9] = 0.5 h, read-out: MES 300 0.5 h (animals protected/tested)
# [10] = 4 h, read-out: MES 300 4 h (animals protected/tested)
# [11] = 0.4 h, read-out: scMET 30 0.4 h (animals protected/tested)
# [12] = 0.5 h, read-out: scMET 30 0.5 h (animals protected/tested)
# [13] = 0.4 h, read-out: scMET 100 0.4 h (animals protected/tested)
# [14] = 0.5 h, read-out: scMET 100 0.5 h (animals protected/tested)
# [15] = 0.4 h, read-out: scMET 300 0.4 h (animals protected/tested)
# [16] = 0.5 h, read-out: scMET 300 0.5 h (animals protected/tested)
# T1 sequence (P21728 whole entry): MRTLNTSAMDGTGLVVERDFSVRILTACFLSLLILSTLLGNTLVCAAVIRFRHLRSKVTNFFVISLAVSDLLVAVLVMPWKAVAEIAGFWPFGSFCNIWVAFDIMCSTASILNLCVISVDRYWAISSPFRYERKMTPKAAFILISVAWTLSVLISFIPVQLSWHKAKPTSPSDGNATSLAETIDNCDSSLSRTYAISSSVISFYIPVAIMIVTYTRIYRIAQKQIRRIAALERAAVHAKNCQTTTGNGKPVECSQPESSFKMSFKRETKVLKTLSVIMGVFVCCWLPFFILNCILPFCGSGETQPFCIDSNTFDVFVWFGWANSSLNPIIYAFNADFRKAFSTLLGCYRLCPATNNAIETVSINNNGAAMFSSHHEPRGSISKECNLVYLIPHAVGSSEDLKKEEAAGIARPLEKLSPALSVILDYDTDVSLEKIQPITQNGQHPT
Structure (SMILES),responders at 30 mg/kg (MES-induced seizures; [5]),responders at 30 mg/kg (MES-induced seizures; [6]),responders at 100 mg/kg (MES-induced seizures; [7]),responders at 100 mg/kg (MES-induced seizures; [8]),responders at 300 mg/kg (MES-induced seizures; [9]),responders at 300 mg/kg (MES-induced seizures; [10]),"responders at 30 mg/kg [1, 11]","responders at 30 mg/kg [1, 12]","responders at 100 mg/kg [1, 13]","responders at 100 mg/kg [1, 14]","responders at 300 mg/kg [1, 15]","responders at 300 mg/kg [1, 16]",TOX 30 0.5 h (animals toxic/tested) [2],TOX 30 4 h (animals toxic/tested) [2],TOX 100 0.5 h (animals toxic/tested) [2],TOX 100 4 h (animals toxic/tested) [2],TOX 300 0.5 h (animals toxic/tested) [2],TOX 300 4 h (animals toxic/tested) [2],6 Hz 100 0.25 h (animals protected/tested) [4],6 Hz 100 0.5 h (animals protected/tested) [4],other results
"CCOC(=O)C1[C@H]2O[C@@H]3COC(C)(C)O[C@H]3C(=NO)[C@@H]12 (stereo partly drawn) [Compound 7, ethyl (4aR,5aS,6aR,7aS)-7-(hydroxyimino)-2,2-dimethylhexahydro-4H-cyclopropa[5,6]pyrano[3,2-d][1,3]dioxine-6-carboxylate]",0%,0%,0%,0%,0%,0%,0%,0%,0%,0%,0%,0%,0/4,0/2,1/8,0/4,3/4,1/2,–,–,"pKi ([3]; D1 dopamine receptor, [3H]SCH23390 0.3 nM, Cheng-Prusoff): 5.21; inhibition of the D1 dopamine receptor ([3]; radioligand competition binding): significant inhibition"
"CCOC(=O)C1[C@@H]2[C@@H](OS(N)(=O)=O)[C@@H]3O[C@H](c4ccc(OC)cc4)OC[C@H]3O[C@H]12 (stereo partly drawn) [Compound 17b, ethyl (2R,4aR,5aS,6aS,7R,7aR)-2-(4-methoxyphenyl)-7(sulfamoyloxy)hexahydro-4H-cyclopropa[5,6]pyrano[3,2-d][1,3]dioxine-6-carboxylate]",0%,0%,0%,0%,0%,0%,0%,0%,0%,0%,0%,0%,0/4,0/2,0/8,0/4,2/4,0/2,0/4,1/4,6 Hz 100 2 h (animals protected/tested) [4]: 1/4; anticonvulsant activity (seizures): anticonvulsant activity
"CCOC(=O)C1[C@@H]2[C@@H](O)[C@@H]3O[C@H](c4ccc(F)cc4F)OC[C@H]3O[C@H]12 (stereo partly drawn) [Compound 20d, Ethyl (2R,4aR,5aS,6aR,7R,7aS)-2-(2,4-difluorophenyl)-7-hydroxyhexahydro-4H-cyclopropa[5,6]pyrano[3,2-d][1,3]dioxine-6-carboxylate]",0%,0%,0%,0%,0%,0%,0%,0%,0%,0%,0%,0%,1/4,0/2,1/8,0/4,2/4,1/2,1/4,0/4,minimal motor impairment ([2]; at same time point / dose as observed activity): minimal motor impairment at the same dose; 6 Hz 100 2 h (animals protected/tested) [4]: 0/4; anticonvulsant activity (seizures): exhibited activity
